Results from US20250064789A1, “KETOAMIDE DERIVATIVES AND PHARMACEUTICAL USES THEREOF” (priority 2022, published 2025).
Where two headings read alike, the source gives them in different places.

Target: recombinant SARS-CoV-2 M^pro (Severe acute respiratory syndrome coronavirus 2 (2019-nCoV) (SARS-CoV-2), UniProt P0DTD1)
Assay: Inhibition of SARS-CoV-2 M^pro enzyme activity (fluorescent substrate assay)
Type: biochemical
Conditions: inhibition of SARS-CoV-2 M^pro enzyme activity, read-out: IC50

| Structure (SMILES) | IC50 (values in nM) | IC50 (values given in μM) |
| --- | --- | --- |
| CC(C)(C)OC(=O)N1CC(NC(=O)C2CCC(F)(F)CC2)(C(=O)N[C@H](Cc2ccccc2)C(=O)C(=O)NCc2ccccn2)C1 [Compound 225] | 38.2 ± 3 nM |  |
| O=C(NCc1ccccn1)C(=O)[C@@H](Cc1ccccc1)NC(=O)C1(NC(=O)C2CCC(F)(F)CC2)CC1 [Compound 169] | 22.6 ± 3.7 nM |  |
| O=C(NCc1cocn1)C(=O)[C@@H](Cc1ccccc1)NC(=O)c1ccccc1 [Compound 458] |  | 11400 ± 80 nM |
| O=C(Cc1noc(-c2ccc(Cl)cc2F)n1)N[C@H](Cc1ccccc1)C(=O)C(=O)NCc1nccs1 [Compound 521] | 441 ± 4.5 nM |  |
| O=C(NCc1ccccn1)C(=O)[C@@H](Cc1ccccc1)NC(=O)C1(NC(=O)C2CCC(F)(F)CC2)CCCC1 [Compound 239] | 32.2 ± 1 nM |  |
| O=C(NCc1ccccn1)C(=O)[C@@H](Cc1ccccc1)NC(=O)C1(NC(=O)[C@H]2CC[C@H](c3ccc(Cl)cc3)CC2)CCC1 [Compound 201] | 653.4 ± 4.1 nM |  |
| C[C@@H](OCc1ccccc1)C(=O)N[C@H](Cc1ccccc1)C(=O)C(=O)NC(c1ccccc1)c1ccccn1 (stereo partly drawn) [Compound 32] |  | > 5000 nM |
| C[C@@H](OCc1ccc(F)cc1)C(=O)N[C@H](Cc1ccccc1)C(=O)C(=O)NCc1ccccn1 [Compound 9] | 12.1 ± 2.5 nM |  |
| C[C@@H](NC(=O)COC1CCCCC1)C(=O)N[C@H](Cc1ccccc1)C(=O)C(=O)NCc1ccccn1 [Compound 114] | 34.9 ± 1 nM |  |
| C[C@@H](NC(=O)C1C[C@@H]2[C@H](C1)C2(F)F)C(=O)N[C@H](Cc1ccco1)C(=O)C(=O)NCc1ccccn1 (stereo partly drawn) [Compound 366] | 64.6 ± 0.7 nM |  |
| O=C(NCc1ccon1)C(=O)[C@@H](Cc1ccccc1)NC(=O)c1ccccc1 [Compound 459] |  | 54740 ± 350 nM |
| O=C(NCc1ccccn1)C(=O)[C@@H](Cc1ccccc1)NC(=O)[C@H]1CCCCN1C(=O)CC1CCC(F)(F)CC1 [Compound 283] | 14.6 nM |  |
| COc1ccc(CNC(=O)C(=O)[C@@H](Cc2ccccc2)NC(=O)[C@@H](C)NC(=O)C2CCC(F)(F)CC2)nc1 [Compound 345] | 60.9 ± 4.7 nM |  |
| O=C(NCc1ccccn1)C(=O)[C@@H](Cc1ccccc1)NC(=O)[C@H]1COCCN1C(=O)[C@@H]1C[C@@H]2[C@H](C1)C2(F)F [Compound 293] | 16.4 ± 1.1 nM |  |
| C[C@@H](NC(=O)COc1ccccc1)C(=O)N[C@H](Cc1ccccc1)C(=O)C(=O)NCc1ccccn1 [Compound 61] | 11.8 ± 0.1 nM |  |
| C[C@H](c1ccccc1)N1C[C@H](C(=O)N[C@H](C)C(=O)N[C@H](Cc2ccccc2)C(=O)C(=O)NCc2ccccn2)CC1=O [Compound 124] | 45.1 ± 0.6 nM |  |
| O=C(NC1(C(=O)N[C@H](Cc2ccccc2)C(=O)C(=O)NCc2ccccn2)CCC1)OCC1CCC(F)(F)CC1 [Compound 313, (4,4-difluorocyclohexyl)methyl(R)-(1-((3,4-dioxo-1-phenyl-4-((pyridin-2-ylmethyl)amino)butan-2-yl)carbamoyl)cyclobutyl) carbamate] | 16 ± 2 nM |  |
| C[C@@H](NC(=O)c1ccccc1F)C(=O)N[C@H](Cc1ccccc1)C(=O)C(=O)NCc1ccccn1 [Compound 138] | 48.6 ± 0.4 nM |  |
| O=C(NCc1ccccn1)C(=O)[C@@H](Cc1ccccc1)NC(=O)C1(NC(=O)[C@@H]2C[C@@H]3[C@H](C2)C3(F)F)CCC1 [Compound 202] | 17.4 ± 1.2 nM |  |
| C[C@@H](OCc1ccc(OC(F)(F)F)cc1)C(=O)N[C@H](Cc1ccccc1)C(=O)C(=O)NCc1ccccn1 [Compound 4] | 20.4 ± 1.8 nM |  |
| O=C(NCc1ccccn1)C(=O)[C@@H](Cc1ccccc1)NC(=O)[C@H]1CCCCN1C(=O)[C@H](NC(=O)c1cnccn1)C1CCCCC1 [Compound 284] | 14.4 ± 0.2 nM |  |

| Structure (SMILES) | IC50 (values in nM) | IC50 (values given in μM) |
| --- | --- | --- |
| COC[C@@H](NC(=O)[C@H]1CC[C@@H](F)CC1)C(=O)N[C@H](Cc1ccccc1)C(=O)C(=O)NCc1nccs1 [Compound 399] | 32.8 ± 1.5 nM |  |
| O=C(Cn1cc(-c2ccccc2)cn1)N[C@H](Cc1ccccc1)C(=O)C(=O)NCc1nccs1 [Compound 491] | 216 ± 7.3 nM |  |
| O=C(CC1CCC(F)(F)CC1)NC1(C(=O)N[C@H](Cc2ccccc2)C(=O)C(=O)NCc2ccccn2)CC1 [Compound 160] | 13.5 ± 3.5 nM |  |
| C[C@@H](NC(=O)C1CCC(F)(F)CC1)C(=O)N[C@H](Cc1ccccc1)C(=O)C(=O)NCc1nc2ccccc2s1 [Compound 355] |  | > 2500 nM |
| O=C(NCc1nccs1)C(=O)[C@@H](Cc1ccccc1)NC(=O)c1cnn(Cc2cc(F)c(F)cc2F)c1 [Compound 490] |  | 5210 ± 720 nM |
| O=C(CN1C(=O)CN(c2cc(F)c(F)c(F)c2)C1=O)N[C@H](Cc1ccccc1)C(=O)C(=O)NCc1nccs1 [Compound 522] | 74.7 ± 4.2 nM |  |
| O=C(NCc1ccccn1)C(=O)[C@@H](Cc1ccccc1)NC(=O)C1(NC(=O)c2[nH]nc3c2COCC3)CCC1 [Compound 200] | 219.3 ± 0.6 nM |  |
| Cc1cc(-c2cc(Cl)cc(C#N)c2)nn1C1(C(=O)N[C@H](Cc2ccccc2)C(=O)C(=O)NCc2nccs2)CC1 [Compound 517] | 56.2 ± 3.2 nM |  |
| CC(C)(NC(=O)C1CC12CCC(F)(F)CC2)C(=O)N[C@H](Cc1ccccc1)C(=O)C(=O)NCc1ccccn1 (stereo partly drawn) [Compound 176] | 15.9 nM |  |
| O=C(Cn1cc(-c2cc(F)c(F)c(F)c2)cn1)N[C@H](Cc1ccccc1)C(=O)C(=O)NCc1nccs1 [Compound 504] | 47.7 ± 0.9 nM |  |
| C[C@@H](NC(=O)C1CCC(F)(F)CC1)C(=O)N[C@H](Cc1ccc(F)cc1)C(=O)C(=O)NCc1ccccn1 [Compound 359] | 36.4 ± 1.9 nM |  |
| C[C@@H](NC(=O)C1CCC(F)(F)CC1)C(=O)N[C@H](Cc1ccccc1)C(=O)C(=O)NCc1cocn1 [Compound 350] | 42 ± 3.7 nM |  |
| O=C(NCc1ccccn1)C(=O)[C@@H](Cc1ccccc1)NC(=O)C1(NC(=O)C2C3COCC32)CCC1 (stereo partly drawn) [Compound 211] | 57.7 ± 3 nM |  |
| C[C@@H](OCc1ccccc1)C(=O)N[C@H](Cc1ccccc1)C(=O)C(=O)N(C)Cc1ccccn1 [Compound 41] |  | > 2500 nM |
| O=C(CC1CC1(F)F)NCC(=O)N[C@H](Cc1ccccc1)C(=O)C(=O)NCc1nccs1 (stereo partly drawn) [Compound 386] | 166 ± 2.1 nM |  |
| O=C(NCc1cccs1)C(=O)[C@@H](Cc1ccccc1)NC(=O)c1ccccc1 [Compound 455] |  | 77300 ± 2310 nM |
| O=C(Cn1cc(-c2ccc(F)c(C(F)(F)F)c2)cn1)N[C@H](Cc1ccccc1)C(=O)C(=O)NCc1nccs1 [Compound 498] | 103 ± 5.3 nM |  |
| O=C(NCc1ncco1)C(=O)[C@@H](Cc1ccccc1)NC(=O)c1ccccc1 [Compound 457] |  | 51500 ± 940 nM |
| CC(C)(C)OC(=O)NCC(C)(C)C(=O)N[C@H](Cc1ccccc1)C(=O)C(=O)NCc1ccccn1 [Compound 255] | 111 ± 4.1 nM |  |
| O=C(CNC(=O)C1(F)CCCCC1)N[C@H](Cc1ccccc1)C(=O)C(=O)NCc1cscn1 [Compound 428] | 17.1 ± 0.1 nM |  |
| C[C@@H](OCc1cc(F)cc(Cl)c1)C(=O)N[C@H](Cc1ccccc1)C(=O)C(=O)NCc1ccc(Cl)cn1 [Compound 46] | 13.3 ± 0.1 nM |  |

| Structure (SMILES) | IC50 (values in nM) | IC50 (values given in μM) |
| --- | --- | --- |
| O=C(NCc1ccccn1)C(=O)[C@@H](Cc1ccccc1)NC(=O)[C@@H]1[C@H]2CCC[C@H]2CN1C(=O)c1cnccn1 [Compound 260] | 742 ± 6.3 nM |  |
| C[C@@H](NC(=O)c1cc2ccccc2o1)C(=O)N[C@H](Cc1ccccc1)C(=O)C(=O)NCc1ccccn1 [Compound 72] | 27.7 ± 4.1 nM |  |
| CC(C)(NC(=O)CC1CCC(F)(F)CC1)C(=O)N[C@H](Cc1ccccc1)C(=O)C(=O)NCc1ccccn1 [Compound 173] | 10.3 ± 0.1 nM |  |
| CC(C)(NC(=O)c1ccc(F)cc1)C(=O)N[C@H](Cc1ccccc1)C(=O)C(=O)NCc1ccccn1 [Compound 186] | 18.6 ± 1.1 nM |  |
| O=C(CC1CCOCC1)NC1(C(=O)N[C@H](Cc2ccccc2)C(=O)C(=O)NCc2ccccn2)CCC1 [Compound 210] | 20.7 ± 1.1 nM |  |
| C[C@@H](NC(=O)CC1CC1(F)F)C(=O)N[C@H](Cc1ccco1)C(=O)C(=O)NCc1nccs1 (stereo partly drawn) [Compound 368] | 197 ± 14 nM |  |
| CC(C)(NC(=O)[C@H](NC(=O)c1cnccn1)C1CCCCC1)C(=O)N[C@H](Cc1ccccc1)C(=O)C(=O)NCc1ccccn1 [Compound 180] | 31.8 ± 0.9 nM |  |
| O=C(NCc1nccs1)C(=O)[C@@H](Cc1ccccc1)NC(=O)C1(NC(=O)C2CCC(F)(F)C2)CC(F)(F)C1 (stereo partly drawn) [Compound 546] | 71.7 ± 7.1 nM |  |
| O=C(NCc1ccccn1)C(=O)[C@@H](Cc1ccccc1)NC(=O)[C@@H](Cc1ccccn1)NC(=O)C1CCC(F)(F)CC1 [Compound 217] | 27.3 ± 1.2 nM |  |
| O=C(NCc1nccs1)C(=O)[C@@H](Cc1ccccc1)NC(=O)C1(NC(=O)C2CCC(F)(F)CC2)CCCC1 [Compound 541] | 51.8 ± 1.4 nM |  |
| C[C@@H](OCc1ccccc1)C(=O)N[C@H](Cc1ccccc1)C(=O)C(=O)N[C@H](C)c1ccccn1 [Compound 31] |  | > 5000 nM |
| O=C(NCc1ccccn1)C(=O)[C@@H](Cc1ccccc1)NC(=O)C1(NC(=O)C2CCOCC2)CCC1 [Compound 191] | 73 ± 4.5 nM |  |
| C[C@@H](NC(=O)C1CCC(F)(F)CC1)C(=O)N[C@H](Cc1ccccc1)C(=O)C(=O)NCc1ncccc1Cl [Compound 341] |  | 11500 ± 3790 nM |
| C[C@@H](NC(=O)[C@H]1CC[C@@H](F)CC1)C(=O)N[C@H](Cc1ccccc1)C(=O)C(=O)NCc1ccccn1 [Compound 127] | 40.8 ± 0.6 nM |  |
| O=C(CNC(=O)C1CCC(F)(F)C1)N[C@H](Cc1ccccc1)C(=O)C(=O)NCc1nccs1 (stereo partly drawn) [Compound 391] | 109 ± 8.6 nM |  |
| C[C@@H](NC(=O)Cc1ccc(F)cc1)C(=O)N[C@H](Cc1ccccc1)C(=O)C(=O)NCc1ccccn1 [Compound 75] | 19.3 ± 0.7 nM |  |
| O=C(NCc1ccccn1)C(=O)[C@@H](Cc1ccccc1)NC(=O)C1(NC(=O)[C@H]2CC[C@@H](F)CC2)CCC1 [Compound 188] | 79 ± 8.8 nM |  |
| O=C(NCc1ccccn1)C(=O)[C@@H](Cc1ccccc1)NC(=O)[C@@H]1[C@H]2CCC[C@H]2CN1C(=O)[C@@H](NC(=O)c1cnccn1)C1CCCCC1 [Compound 261] | 863.6 ± 0.1 nM |  |
| CC(C)(C(=O)N[C@H](Cc1ccccc1)C(=O)C(=O)NCc1ccccn1)n1cc(-c2ccccc2)cn1 [Compound 326, (R)-3-(2-methyl-2-(4-phenyl-1H-pyrazol-1-yl)propionamido)-2-oxo-4-phenyl-N-(pyridin-2-ylmethyl)butyramide] | 20.7 ± 0.5 nM |  |
| O=C(NCc1ccccn1)C(=O)[C@@H](Cc1ccccc1)NC(=O)C(NC(=O)c1ccc(F)cc1)C(F)(F)F (stereo partly drawn) [Compound 249] | 256 ± 6.4 nM |  |
| C[C@@H](NC(=O)c1ccc(F)c(S(C)(=O)=O)c1)C(=O)N[C@H](Cc1ccccc1)C(=O)C(=O)NCc1ccccn1 [Compound 103] | 28.8 ± 1 nM |  |
